From the NIST ThermoML archive (doi:10.1021/je200668a)
Where “and” joins values, the source holds several entries; their conditions need not be identical. Identical values can stand only once.

Conditions: Liquid, Pulse Transmission

O [water]
Conditions	speed of sound
288.13 K, 250900 kPa	1878.5 m/s
288.13 K, 300400 kPa	1955.1 m/s
288.13 K, 701000 kPa	2453.9 m/s
288.14 K, 150300 kPa	1718.5 m/s
288.15 K, 50900 kPa	1550.1 m/s
288.15 K, 349200 kPa	2025.9 m/s
288.15 K, 499800 kPa	2225.2 m/s
288.16 K, 99800 kPa	1631.8 m/s
288.16 K, 200200 kPa	1800.9 m/s
288.17 K, 99700 kPa	1633.2 m/s
288.17 K, 401300 kPa	2098 m/s
288.17 K, 561300 kPa	2300.1 m/s
288.17 K, 640700 kPa	2391.2 m/s
297.74 K, 702200 kPa	2448.7 m/s
297.78 K, 653200 kPa	2402.2 m/s
297.79 K, 250300 kPa	1895.5 m/s
297.79 K, 549700 kPa	2286.1 m/s
297.8 K, 499500 kPa	2225.4 m/s
297.82 K, 601700 kPa	2346.1 m/s
297.83 K, 300300 kPa	1967.2 m/s
297.84 K, 200200 kPa	1819.5 m/s
297.88 K, 50600 kPa	1580.3 m/s
297.88 K, 151000 kPa	1743.2 m/s
297.89 K, 400300 kPa	2101.3 m/s
297.9 K, 100 kPa	1493.8 m/s
297.9 K, 450500 kPa	2165.2 m/s
297.99 K, 99500 kPa	1660.6 m/s
298.05 K, 349200 kPa	2035.4 m/s
298.07 K, 699900 kPa	2450.3 m/s
298.09 K, 659800 kPa	2412.6 m/s
298.1 K, 599200 kPa	2344.5 m/s
298.11 K, 551300 kPa	2287 m/s
298.12 K, 350600 kPa	2038.7 m/s
298.15 K, 400500 kPa	2103.8 m/s
298.15 K, 500000 kPa	2229.8 m/s
298.16 K, 200800 kPa	1821.6 m/s
298.16 K, 300500 kPa	1968.4 m/s
298.18 K, 450300 kPa	2167.6 m/s
298.2 K, 50100 kPa	1580.4 m/s
298.24 K, 400400 kPa	2102.3 m/s
298.27 K, 150700 kPa	1743.9 m/s
298.28 K, 350900 kPa	2038.4 m/s
298.29 K, 249200 kPa	1894.6 m/s
298.3 K, 150800 kPa	1745 m/s
298.3 K, 299000 kPa	1965.7 m/s
298.31 K, 100400 kPa	1662.8 m/s
298.31 K, 250700 kPa	1897.4 m/s
298.34 K, 50200 kPa	1580.9 m/s
298.34 K, 199800 kPa	1820.7 m/s
298.35 K, 100 kPa	1492.8 m/s
298.36 K, 100400 kPa	1664.2 m/s
298.37 K, 100 kPa	1492.2 m/s
298.38 K, 699000 kPa	2448 m/s
298.41 K, 651700 kPa	2400.7 m/s
298.42 K, 449900 kPa	2165.5 m/s
298.43 K, 499700 kPa	2225.8 m/s
298.43 K, 549200 kPa	2287.7 m/s
298.45 K, 601800 kPa	2347.7 m/s
308.06 K, 400400 kPa	2112.6 m/s
308.07 K, 449300 kPa	2173.3 m/s
308.08 K, 300500 kPa	1983.1 m/s
308.09 K, 349400 kPa	2048.7 m/s
308.09 K, 400000 kPa	2112.1 m/s
308.09 K, 499500 kPa	2230.5 m/s
308.09 K, 559700 kPa	2301.4 m/s
308.09 K, 650800 kPa	2402.2 m/s
308.09 K, 703600 kPa	2441.6 m/s
308.1 K, 250500 kPa	1913.4 m/s
308.1 K, 299900 kPa	1983.2 m/s
308.1 K, 350900 kPa	2048.9 m/s
308.1 K, 601700 kPa	2349.8 m/s
308.1 K, 698500 kPa	2446.7 m/s
308.11 K, 100 kPa	1515.3 m/s
308.11 K, 160100 kPa	1781.2 m/s
308.11 K, 650700 kPa	2402.3 m/s
308.12 K, 149900 kPa	1766.1 m/s
308.12 K, 200400 kPa	1840.6 m/s
308.12 K, 200700 kPa	1840.1 m/s
308.12 K, 299900 kPa	1984.1 m/s
308.12 K, 400700 kPa	2110.8 m/s
308.13 K, 51000 kPa	1606 m/s
308.13 K, 349800 kPa	2049.7 m/s
308.13 K, 599600 kPa	2344.5 m/s
308.14 K, 99700 kPa	1690.4 m/s
308.14 K, 150300 kPa	1766.1 m/s
308.14 K, 449900 kPa	2171.7 m/s
308.14 K, 701600 kPa	2447.4 m/s
308.15 K, 100 kPa	1514.3 m/s and 1514.1 m/s
308.15 K, 250800 kPa	1913.1 m/s
308.15 K, 450900 kPa	2174.9 m/s
308.15 K, 499400 kPa	2232.5 m/s
308.16 K, 111000 kPa	1706.1 m/s
308.16 K, 639800 kPa	2388.9 m/s
308.17 K, 50300 kPa	1604.9 m/s
308.17 K, 99800 kPa	1690 m/s
308.17 K, 200300 kPa	1839.8 m/s
308.17 K, 549700 kPa	2292.4 m/s
308.19 K, 250500 kPa	1913.9 m/s
308.19 K, 549600 kPa	2291 m/s
308.21 K, 499700 kPa	2232.3 m/s
308.22 K, 50600 kPa	1605.5 m/s
308.22 K, 599600 kPa	2346.6 m/s
318.02 K, 200600 kPa	1860.6 m/s
318.02 K, 350800 kPa	2062 m/s
318.06 K, 399700 kPa	2122.5 m/s
318.07 K, 99500 kPa	1705.7 m/s
318.09 K, 349600 kPa	2062.1 m/s
318.1 K, 200400 kPa	1860.8 m/s
318.1 K, 299400 kPa	1995.8 m/s
318.1 K, 300100 kPa	1998.9 m/s
318.1 K, 349600 kPa	2061 m/s
318.1 K, 449800 kPa	2181.8 m/s
318.11 K, 150100 kPa	1787.1 m/s
318.11 K, 160100 kPa	1802.4 m/s
318.11 K, 250600 kPa	1930.2 m/s
318.12 K, 50400 kPa	1623.1 m/s
318.12 K, 299900 kPa	1996.4 m/s
318.12 K, 599100 kPa	2350.3 m/s
318.12 K, 599600 kPa	2346.3 m/s
318.12 K, 641800 kPa	2388.1 m/s
318.13 K, 250400 kPa	1930.2 m/s
318.13 K, 399600 kPa	2121.7 m/s
318.14 K, 111200 kPa	1725.7 m/s
318.14 K, 449700 kPa	2182.1 m/s
318.14 K, 701800 kPa	2454.2 m/s
318.15 K, 250000 kPa	1930.6 m/s
318.15 K, 651000 kPa	2405.8 m/s
318.16 K, 100 kPa	1530.9 m/s
318.16 K, 401300 kPa	2123.6 m/s
318.16 K, 549200 kPa	2297.1 m/s
318.16 K, 559300 kPa	2305.4 m/s
318.17 K, 50000 kPa	1622.5 m/s
318.17 K, 499100 kPa	2239.1 m/s
318.17 K, 499800 kPa	2240.9 m/s
318.17 K, 549400 kPa	2295.5 m/s
318.18 K, 450600 kPa	2183.6 m/s
318.18 K, 702400 kPa	2453.8 m/s
318.19 K, 200200 kPa	1861.8 m/s
318.19 K, 499900 kPa	2239.9 m/s
318.19 K, 651200 kPa	2401.2 m/s
318.19 K, 701700 kPa	2454.7 m/s
318.21 K, 99700 kPa	1706.9 m/s
318.21 K, 602100 kPa	2348.1 m/s
318.22 K, 150400 kPa	1788.9 m/s
318.26 K, 49100 kPa	1621.2 m/s
327.92 K, 641400 kPa	2396.1 m/s
327.96 K, 560500 kPa	2312.8 m/s
327.97 K, 701700 kPa	2451.4 m/s
328.07 K, 550700 kPa	2301.2 m/s
328.08 K, 109200 kPa	1735.6 m/s
328.08 K, 350700 kPa	2075.4 m/s
328.08 K, 499600 kPa	2246.7 m/s
328.1 K, 150000 kPa	1799.2 m/s
328.12 K, 100100 kPa	1720.7 m/s
328.13 K, 200200 kPa	1875.4 m/s
328.14 K, 50900 kPa	1636.9 m/s
328.14 K, 300800 kPa	2013.9 m/s
328.14 K, 450900 kPa	2192 m/s
328.15 K, 300000 kPa	2015.6 m/s
328.16 K, 159900 kPa	1816 m/s
328.16 K, 351700 kPa	2077.1 m/s
328.16 K, 399700 kPa	2133 m/s
328.16 K, 499400 kPa	2246.5 m/s
328.16 K, 601200 kPa	2355.9 m/s
328.16 K, 601900 kPa	2353.3 m/s
328.16 K, 700100 kPa	2453.2 m/s
328.17 K, 50600 kPa	1636.4 m/s
328.17 K, 200900 kPa	1876.4 m/s
328.18 K, 250700 kPa	1946.5 m/s
328.19 K, 100 kPa	1541.1 m/s
328.19 K, 250700 kPa	1947.4 m/s
328.21 K, 449800 kPa	2189.2 m/s
328.21 K, 652700 kPa	2406.9 m/s
328.22 K, 400100 kPa	2137.3 m/s
328.27 K, 100 kPa	1542.1 m/s
328.49 K, 99800 kPa	1720.6 m/s
328.66 K, 650700 kPa	2404.5 m/s
328.69 K, 300000 kPa	2012.1 m/s
328.72 K, 200100 kPa	1874.3 m/s
328.72 K, 400500 kPa	2138.4 m/s
328.72 K, 551000 kPa	2304.7 m/s
328.73 K, 50900 kPa	1637.5 m/s
328.74 K, 449200 kPa	2194.3 m/s
328.76 K, 100 kPa	1543.9 m/s
328.76 K, 601300 kPa	2354.9 m/s
328.77 K, 350900 kPa	2076.6 m/s
328.77 K, 700400 kPa	2453.8 m/s
328.83 K, 150100 kPa	1799.9 m/s
328.9 K, 250100 kPa	1944.4 m/s
328.92 K, 499400 kPa	2250.4 m/s
337.66 K, 150000 kPa	1810.9 m/s
337.69 K, 350500 kPa	2086.1 m/s
337.69 K, 399100 kPa	2142.9 m/s
337.75 K, 200500 kPa	1886 m/s
337.8 K, 501100 kPa	2260 m/s
337.85 K, 300700 kPa	2024 m/s
337.87 K, 50100 kPa	1643.6 m/s
337.95 K, 100500 kPa	1731.6 m/s
338.02 K, 100 kPa	1547.4 m/s
338.04 K, 601100 kPa	2360.1 m/s
338.07 K, 650600 kPa	2410.2 m/s
338.12 K, 451000 kPa	2203.4 m/s
338.15 K, 250300 kPa	1956.7 m/s
338.22 K, 549600 kPa	2309.8 m/s
338.22 K, 700800 kPa	2455.7 m/s
349.03 K, 601700 kPa	2366 m/s
349.12 K, 500600 kPa	2267.1 m/s
349.18 K, 49900 kPa	1647.8 m/s
349.19 K, 100 kPa	1549 m/s
349.22 K, 150700 kPa	1818.4 m/s
349.22 K, 300400 kPa	2029.7 m/s
349.27 K, 549200 kPa	2313.8 m/s
349.28 K, 400700 kPa	2153 m/s
349.3 K, 250900 kPa	1965 m/s
349.32 K, 349800 kPa	2091.6 m/s
349.35 K, 450800 kPa	2209.4 m/s
349.41 K, 100400 kPa	1737.3 m/s
349.59 K, 651400 kPa	2412.5 m/s
349.68 K, 200700 kPa	1892.8 m/s
349.72 K, 704500 kPa	2445.1 m/s
